In PubChem BioAssay AID588655 (The Scripps Research Institute Molecular Screening Center, 2011) one finds fold change and phospho-ERK1/2 band inhibition vs DMSO (stronger effect = higher value) data, which are given here for three compounds.

The test system of assay [1] is HT29 cells, phospho-ERK1/2 western blot, 24 h. The assay can be described thus: altered phosphorylated MAPK1 amounts in cells – HT29 cells, chemiluminescent western blot, powder samples, counter-screen for KLF5 inhibitor project, late-stage follow-up (AID 588655). Particulars: measured here: phospho-ERK fold change vs DMSO; at 10 µM. For orientation: In western blotting, separated proteins are transferred to a membrane and probed.

The target of assay [2] is Mitogen-activated protein kinase 1 (Homo sapiens) (UniProt P28482). The description is as above. Particulars: HT29 cells, phospho-ERK1/2 western blot, 24 h; at 10 µM; stronger effect = higher value.
Sequence of Mitogen-activated protein kinase 1 (Homo sapiens) (P28482 whole entry, looked up): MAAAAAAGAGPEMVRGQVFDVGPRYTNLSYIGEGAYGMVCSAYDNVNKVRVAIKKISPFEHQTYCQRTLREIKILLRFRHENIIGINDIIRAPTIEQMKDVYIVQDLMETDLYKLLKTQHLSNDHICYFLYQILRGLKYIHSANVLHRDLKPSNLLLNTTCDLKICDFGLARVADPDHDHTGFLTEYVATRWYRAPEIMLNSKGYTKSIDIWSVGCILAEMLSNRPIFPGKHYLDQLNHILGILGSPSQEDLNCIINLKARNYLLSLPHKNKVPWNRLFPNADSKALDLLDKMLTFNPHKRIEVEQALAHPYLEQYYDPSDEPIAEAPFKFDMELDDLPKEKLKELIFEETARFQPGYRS

Take `CN(C(=O)COC(=O)/C=C/c1cccc([N+](=O)[O-])c1)C1CCS(=O)(=O)C1` (stereo unspecified): the fold change in assay [1] is -1.63. Moreover, in assay [2], the phospho-ERK1/2 band inhibition vs DMSO (stronger effect = higher value) was 38.6%.
`CN(C(=O)CNC(=O)/C=C/c1cccc(Cl)c1)C1CCS(=O)(=O)CC1`: in assay [1], the fold change is -2.02. For the same compound, in assay [2], the phospho-ERK1/2 band inhibition vs DMSO (stronger effect = higher value) was 50.5%.
As for `CN(C(=O)CNC(=O)/C=C/c1cccc(Cl)c1)C1CCS(=O)(=O)C1` (stereo unspecified), the fold change in assay [1] is -1.52. Also, in assay [2], the phospho-ERK1/2 band inhibition vs DMSO (stronger effect = higher value) is 34.3%.
